Test results from the supplement of paper PMC9005190.

Legend:
AMY3 [1] = test: Emax (maximal agonist-induced change in ebBRET relative to vehicle) (% of vehicle response (amplitude of change)); higher = larger response (for Gs, larger decrease in membrane ebBRET, i.e. stronger Gs activation)
AMY3 [2] = test: pEC50 of agonist-induced pathway activation (ebBRET)
GPR68 [3] = target: GPR68 (UniProt Q15743); test: Emax (maximal agonist-induced change in ebBRET relative to vehicle) (% of vehicle response (amplitude of change)); higher = larger response (for Gs, larger decrease in membrane ebBRET, i.e. stronger Gs activation)
Chain of GPR68 (Q15743 whole entry): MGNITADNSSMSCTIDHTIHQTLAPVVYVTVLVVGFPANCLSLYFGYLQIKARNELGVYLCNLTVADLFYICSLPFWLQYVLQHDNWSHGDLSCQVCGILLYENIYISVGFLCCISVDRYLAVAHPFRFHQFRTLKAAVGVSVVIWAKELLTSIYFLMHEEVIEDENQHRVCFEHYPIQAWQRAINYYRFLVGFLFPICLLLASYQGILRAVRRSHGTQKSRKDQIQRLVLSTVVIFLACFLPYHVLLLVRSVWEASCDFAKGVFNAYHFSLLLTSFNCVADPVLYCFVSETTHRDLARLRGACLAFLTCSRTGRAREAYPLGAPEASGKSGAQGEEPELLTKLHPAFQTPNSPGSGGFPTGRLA

GPR4 [4] = target: GPR4 (UniProt P46093); test: as above
Chain of GPR4 (P46093 whole entry, looked up): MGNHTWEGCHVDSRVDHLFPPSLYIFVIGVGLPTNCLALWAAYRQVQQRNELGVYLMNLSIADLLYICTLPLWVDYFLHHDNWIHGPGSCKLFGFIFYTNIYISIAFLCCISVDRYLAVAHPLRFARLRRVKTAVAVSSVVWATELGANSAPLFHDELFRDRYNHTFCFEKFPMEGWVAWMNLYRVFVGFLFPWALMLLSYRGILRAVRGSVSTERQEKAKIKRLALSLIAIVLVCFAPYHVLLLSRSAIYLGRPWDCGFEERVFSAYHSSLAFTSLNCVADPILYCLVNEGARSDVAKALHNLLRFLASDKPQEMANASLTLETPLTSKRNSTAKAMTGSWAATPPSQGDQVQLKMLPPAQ

GPR65 [5] = target: GPR65 (UniProt Q8IYL9); test: as above
Chain of GPR65 (Q8IYL9 whole entry): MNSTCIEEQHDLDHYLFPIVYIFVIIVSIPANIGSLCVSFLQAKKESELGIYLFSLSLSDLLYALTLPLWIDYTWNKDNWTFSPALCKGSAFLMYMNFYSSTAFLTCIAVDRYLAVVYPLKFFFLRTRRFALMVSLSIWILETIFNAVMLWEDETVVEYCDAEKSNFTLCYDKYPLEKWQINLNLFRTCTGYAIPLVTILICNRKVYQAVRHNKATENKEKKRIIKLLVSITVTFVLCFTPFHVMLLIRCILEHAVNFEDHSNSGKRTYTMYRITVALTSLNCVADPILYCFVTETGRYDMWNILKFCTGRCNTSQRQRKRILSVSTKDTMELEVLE

GPR68 [6] = target: GPR68 (UniProt Q15743); test: pEC50 of agonist-induced pathway activation (ebBRET)
GPR4 [7] = target: GPR4 (UniProt P46093); test: as above
GPR65 [8] = target: GPR65 (UniProt Q8IYL9); test: as above

CC[C@H](C)[C@H](NC(=O)[C@H](C)NC(=O)CNC(=O)[C@H](Cc1ccccc1)NC(=O)[C@H](CC(N)=O)NC(=O)[C@H](CC(N)=O)NC(=O)[C@H](CO)NC(=O)[C@H](CO)NC(=O)[C@H](Cc1cnc[nH]1)NC(=O)[C@@H](NC(=O)[C@H](CC(C)C)NC(=O)[C@H](Cc1ccccc1)NC(=O)[C@H](CC(N)=O)NC(=O)[C@H](C)NC(=O)[C@H](CC(C)C)NC(=O)[C@H](CCCNC(=N)N)NC(=O)[C@H](CCC(N)=O)NC(=O)[C@@H](NC(=O)[C@H](C)NC(=O)[C@@H]1CSSC[C@H](NC(=O)[C@@H](N)CCCCN)C(=O)N[C@@H](CC(N)=O)C(=O)N[C@@H]([C@@H](C)O)C(=O)N[C@@H](C)C(=O)N[C@@H]([C@@H](C)O)C(=O)N1)[C@@H](C)O)C(C)C)C(=O)N[C@@H](CC(C)C)C(=O)N[C@@H](CO)C(=O)N[C@@H](CO)C(=O)N[C@H](C(=O)N[C@@H](CC(N)=O)C(=O)N[C@H](C(=O)NCC(=O)N[C@@H](CO)C(=O)N[C@@H](CC(N)=O)C(=O)N[C@H](C(=O)N[C@@H](Cc1ccc(O)cc1)C(N)=O)[C@@H](C)O)C(C)C)[C@@H](C)O [Amylin]
Details	Emax, pathway (G protein / arrestin sensor): G12	Emax, pathway (G protein / arrestin sensor): G13	Emax, pathway (G protein / arrestin sensor): G15	Emax, pathway (G protein / arrestin sensor): Gs	pEC50, pathway (G protein / arrestin sensor): G12	pEC50, pathway (G protein / arrestin sensor): G13	pEC50, pathway (G protein / arrestin sensor): G15	pEC50, pathway (G protein / arrestin sensor): Gs
AMY3 [1]	62.3	271	122	21.4	–	–	–	–
AMY3 [2]	–	–	–	–	8.6	8.49	7.22	7.79

Cl [pH (proton)]
Details	Emax, GPR4 [4]	Emax, GPR65 [5]	Emax, GPR68 [3]	pEC50, GPR4 [7]	pEC50, GPR65 [8]	pEC50, GPR68 [6]
pathway (G protein / arrestin sensor): G11	164	–	849	6.64	–	7.35
pathway (G protein / arrestin sensor): G12	–	–	63.4	–	–	7.71
pathway (G protein / arrestin sensor): G13	–	117	65.6	–	7.9	8.24
pathway (G protein / arrestin sensor): G14	61.3	–	871	6.26	–	7.2
pathway (G protein / arrestin sensor): G15	111	–	446	6.59	–	6.49
pathway (G protein / arrestin sensor): Gi1	–	–	582	–	–	6.56
pathway (G protein / arrestin sensor): Gi2	–	–	454	–	–	6.63
pathway (G protein / arrestin sensor): GoA	–	–	296	–	–	7.17
pathway (G protein / arrestin sensor): GoB	–	86.8	428	–	6.3	7.41
pathway (G protein / arrestin sensor): Gq	152	–	749	6.73	–	7.4
pathway (G protein / arrestin sensor): Gs	44.2	32.3	44.9	7.91	7	6.51
pathway (G protein / arrestin sensor): βarr1/GRK2	41.4	57.6	76.2	–	5.98	6.25
pathway (G protein / arrestin sensor): βarr2	173	68.8	103	6.99	6.31	6
pathway (G protein / arrestin sensor): βarr2/GRK2	–	–	147	–	–	6.07
